We go through 25 compounds from PubChem BioAssay (NCI).

What all share (assay): NCI tumour cell line growth inhibition, 48 h
The test system of assay [1] is 786-0 renal.
Assay [2] deals with A498 renal.
Assay [3] deals with COLO 205 colon.
Assay [4] concerns HL-60(TB) leukemia.
Assay [5] concerns IGROV1 ovarian.
The test system of assay [6] is NCI-H460 lung.
In assay [7] the test system is OVCAR-4 ovarian.
The subject of assay [8] is OVCAR-8 ovarian.
Assay [9] relates to PC-3 prostate.
Assay [10] has as its system SK-OV-3 ovarian.
Assay [11] deals with U251 CNS.

The structures appear in SMILES notation.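 In this assay, cells in 96-well plates receive the compound at five concentrations for 48 hours. Endpoints are linearly interpolated between the surrounding concentrations. At the TGI there is no net growth.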

As for `CC1(C)[C@@H]2C[C@H]1c1cnc(-c3ccccn3)cc1C2CCCCC[C@@H]1c2cc(-c3ccccn3)ncc2[C@@H]2C[C@H]1C2(C)C` (stereo not given in full), the TGI in [1] was 11.5 µM; in assay [2] it was 8.92 µM; in assay [3] it was > 32.8 µM; in assay [4] it was 5.76 µM; in [5], 46.1 µM; in assay [6], 24.9 µM. Moreover, the TGI in [7], in assay [8], in [9], in assay [10] and in [11] was > 100 µM throughout.
Consider `O=C1CC(=O)NC(=NNS(=O)(=O)c2ccc(Cl)cc2)N1`, for which the TGI in [1], in [2], in assay [3], in [4], in assay [5] and in [6] was > 100 µM throughout. Further, the TGI in assay [7], in assay [8], in [9], in [10] and in assay [11] was > 100 µM throughout.
For `C#CC1(O)CCCCCCCCC2(CCCCCCCC1)OCCO2`, the TGI came to 31.4 µM in [1]; 27.8 µM in assay [2]; 33.2 µM in assay [3]; 40.9 µM in assay [4]; 30.3 µM in [5]; 44.2 µM in [6]. Also, the TGI in assay [7] is 19.5 µM; in assay [8], 34.4 µM; in [9] it was 25.9 µM; in assay [10] it was 33.2 µM; in assay [11], 30.8 µM.
For `CCOC(=O)c1c(NC(=S)Nc2ccccc2)sc2c1CCOC2`, the TGI in [1], in assay [2], in [3], in assay [4], in assay [5] and in [6] was > 100 µM in each case. The TGI in [7], in [8], in [9], in [10] and in assay [11] was > 100 µM each time.
In the case of `CN(C)c1ccc(C=C2C(=O)NC(=S)NC2=O)c2ccccc12`, the TGI in assay [1], in assay [2], in assay [3], in assay [4], in assay [5] and in assay [6] was > 100 µM each time. Moreover, the TGI in assay [7] is > 100 µM; in [8], 77 µM; in assay [9] it was > 100 µM; in assay [10], > 100 µM; in assay [11], > 100 µM.
Regarding `COC(=O)/C=C1/OC(c2ccc(OC)cc2)=C(Cl)C1=O`, the TGI was found to be 24.4 µM in [1]; 49.1 µM in assay [2]; 23.7 µM in [3]; 12.2 µM in assay [4]; 34.1 µM in assay [5]; 42.9 µM in assay [6]. The TGI came to 30.1 µM in assay [7]; 28.2 µM in assay [8]; 28.9 µM in [9]; 25.2 µM in assay [10]; 22.4 µM in [11].
For `O=C1CC(NCc2ccccc2)c2c(Cl)sc(Cl)c21` (stereo not given), the TGI in assay [1] was 57.8 µM; in [2], > 100 µM; in assay [3], 56 µM; in assay [4], 41.6 µM; in [5] it was > 64.6 µM; in assay [6], > 100 µM. Further, the TGI in [7] was > 87.3 µM; in [8], 48.5 µM; in [9], 43 µM; in [10], > 100 µM; in assay [11] it was 43.4 µM.
For `Cn1c(N)nc(-c2ccc(Cl)cc2)c1SSc1c(-c2ccc(Cl)cc2)nc(N)n1C`, the TGI in assay [1] turned out to be 3.43 µM; in [2], 27.8 µM; in assay [3], 3.81 µM; in assay [4], 2.92 µM; in assay [5], 9.21 µM; in assay [6], 15.3 µM. Further, the TGI in assay [7] turned out to be 3.21 µM; in assay [8], 5.81 µM; in assay [9], 3.38 µM; in [10], 27.4 µM; in assay [11], 4.19 µM.
Take `CC(=O)CC1=C(OC(C)C)C2(OCCO2)C1O` (stereo not given): the TGI in assay [1], in assay [2], in assay [3], in assay [4], in [5] and in [6] was > 100 µM each time. The TGI in assay [7], in assay [8], in assay [9], in [10] and in [11] was > 100 µM each time.
With `ON=C(CC(O)(C(F)(F)Cl)C(F)(F)Cl)CC(O)(C(F)(F)Cl)C(F)(F)Cl`, the TGI in assay [1], in assay [2], in assay [3], in assay [4], in [5] and in assay [6] was > 10 µM in each case. For the same compound, the TGI in [7], in assay [8], in assay [9], in assay [10] and in [11] was > 10 µM in each case.
In the case of `CNc1nc(C(N)=O)c(N)s1`, the TGI in assay [1], in [2], in [3], in assay [4], in assay [5] and in [6] was > 100 µM in each case. Further, the TGI in assay [7], in assay [8], in assay [9], in assay [10] and in assay [11] was > 100 µM throughout.
Regarding `O=C(c1ccc(Cl)cc1)N(C(=S)OCCOc1ccccc1)c1ccccc1`, the TGI was determined as 40.1 µM in [1]; 48 µM in [2]; 37.1 µM in assay [3]; 38.6 µM in assay [4]; 38.1 µM in [5]; 62.7 µM in [6]. For the same compound, the TGI in [7] is 40.8 µM; in assay [8], 48.3 µM; in [9], 56.7 µM; in [10], > 100 µM; in [11] it was 29.7 µM.
For `O=C1C(c2cnc3ccccc3n2)=C(O)c2ccccc21`, the TGI in assay [1] is > 100 µM; in assay [2], > 100 µM; in [3], > 56.2 µM; in assay [4], > 88.5 µM; in [5], > 100 µM; in [6], > 100 µM. For the same compound, the TGI in assay [7] is > 100 µM; in [8], > 100 µM; in assay [9], > 85.7 µM; in [10], > 46.4 µM; in [11] it was > 100 µM.
As for `CCCCCCCCCCCCCCCCCCOCC(O)COP(=O)(O)OCC1OC(n2ccc(N)nc2=O)C(O)C1O` (stereo not given), the TGI was 26.5 µM in assay [1]; 40.6 µM in assay [2]; 29.5 µM in assay [3]; 30.8 µM in [4]; 28.5 µM in assay [5]; 14.8 µM in [6]. The TGI was > 100 µM in [7]; 24.3 µM in [8]; 20.7 µM in [9]; > 100 µM in assay [10]; 30.2 µM in assay [11].
With `c1ccc(CSC2(SCc3ccccc3)CCCCC2)cc1`, the TGI in assay [1], in assay [2], in [3], in assay [4], in assay [5] and in [6] was > 10 µM throughout. In addition, the TGI in assay [7], in assay [8], in [9], in assay [10] and in [11] was > 10 µM throughout.
For the compound `CCOC(=O)NN(C(=O)OCC)c1c(C)cc(C)cc1C`, the TGI in assay [1], in assay [2], in [3], in assay [4], in assay [5] and in assay [6] was > 100 µM throughout. In addition, the TGI in [7], in assay [8], in assay [9], in assay [10] and in [11] was > 100 µM throughout.
As to `O=C(N/N=C/c1ccccc1)c1cccc2nc3ccccc3nc12`, the TGI in assay [1] is > 100 µM; in [2], > 100 µM; in assay [3] it was 18 µM; in assay [4] it was > 100 µM; in assay [5], > 100 µM; in assay [6] it was 31.4 µM. Also, the TGI in assay [7], in assay [8], in assay [9], in assay [10] and in assay [11] was > 100 µM in each case.
Turning to `CC(C)Oc1c(-c2ccc(F)cc2)c(O)c2c3c1oc(=O)n3C=CC2C` (stereo not given), the TGI in assay [1] was found to be 27.8 µM; in [2] it was 28.2 µM; in [3], 32.2 µM; in [4], 31 µM; in assay [5], 29.2 µM; in [6], 29.1 µM. Besides, the TGI was 23.3 µM in assay [7]; 30.6 µM in assay [8]; 31.7 µM in assay [9]; > 100 µM in [10]; 30.3 µM in assay [11].
For `Cc1ccc(Nc2nc3c(=O)n(C)c(=O)n(C)c3nc2Nc2ccc(C)cc2)cc1`, the TGI in assay [1] is 18.7 µM; in assay [2], 40.2 µM; in [3], 16 µM; in assay [4] it was > 100 µM; in assay [5] it was 29.8 µM; in assay [6], > 100 µM. Also, the TGI in [7] was 23.9 µM; in [8] it was 26.8 µM; in assay [9], 27.9 µM; in [10], > 100 µM; in assay [11], 29.9 µM.
With `CCOC(=O)c1nc2ccc(C(F)(F)F)cc2nc1Oc1ccc(C(=O)OC)cc1`, the TGI in [1], in assay [2], in assay [3], in assay [4], in assay [5] and in assay [6] was > 100 µM in each case. Besides, the TGI in assay [7], in assay [8], in [9], in [10] and in assay [11] was > 100 µM throughout.
In the case of `CN1CC2CN(Cc3ccccc3)CCN2c2cccnc21` (stereo not given), the TGI in assay [1], in [2], in [3], in [4], in assay [5] and in assay [6] was > 100 µM throughout. In addition, the TGI in [7], in assay [8], in assay [9], in [10] and in [11] was > 100 µM each time.
With `CSc1nc2c(c(=O)[nH]1)N=C(c1ccccc1)CC(c1ccccc1)N2` (stereo not given), the TGI is > 100 µM in assay [1]; > 100 µM in assay [2]; > 100 µM in [3]; 59.2 µM in assay [4]; > 100 µM in assay [5]; 27.2 µM in [6]. Also, the TGI was 95.2 µM in assay [7]; > 100 µM in assay [8]; > 100 µM in [9]; 89.7 µM in [10]; > 100 µM in assay [11].
For `O=C(c1cc2c(c3ccccc13)NC1(CCCCC1)N=C2C(F)(F)F)C(F)(F)F`, the TGI worked out at 14.1 µM in assay [1]; 20.8 µM in [2]; 18.1 µM in assay [3]; 9.89 µM in assay [4]; 17.3 µM in [5]; 10.9 µM in assay [6]. Further, the TGI is 14.9 µM in assay [7]; 15.8 µM in assay [8]; 12.4 µM in assay [9]; 18.7 µM in assay [10]; 13.9 µM in [11].
`CC(=O)N(C(C)=O)c1cc2c3c(c1)CCCN3CCC2`: the TGI in assay [1], in assay [2], in [3], in assay [4], in [5] and in assay [6] was > 10 µM in each case. Further, the TGI in assay [7], in assay [8], in [9], in assay [10] and in [11] was > 10 µM each time.
Consider `Cc1[nH]c(=O)nc(NNCc2ccc(Cl)cc2)c1C(=O)Nc1ccc(Cl)cc1`, for which the TGI in [1], in [2], in assay [3], in [4], in [5] and in assay [6] was > 100 µM throughout. The TGI in assay [7], in assay [8], in assay [9], in assay [10] and in [11] was > 100 µM in each case.
